# Source: PMC7846792, “Perception of a divergent family of phytocytokines by the Arabidopsis receptor kinase MIK2” (Nature Communications, 2021)
# No end group written: not given here.
# Biological target: T1, MIK2 ectodomain (MIK2ECD, residues 1–709) (Arabidopsis thaliana, UniProt Q8VZG8)
# T1 construct: Arabidopsis thaliana MIK2 (residues 1–709); StrepII-9xHis (TEV-cleavable) (C, cleaved yes); made in house; host or cells: Trichoplusia ni Tnao38 insect cells (baculovirus, modified pFastBac)
# T1 sequence (Q8VZG8 44-709): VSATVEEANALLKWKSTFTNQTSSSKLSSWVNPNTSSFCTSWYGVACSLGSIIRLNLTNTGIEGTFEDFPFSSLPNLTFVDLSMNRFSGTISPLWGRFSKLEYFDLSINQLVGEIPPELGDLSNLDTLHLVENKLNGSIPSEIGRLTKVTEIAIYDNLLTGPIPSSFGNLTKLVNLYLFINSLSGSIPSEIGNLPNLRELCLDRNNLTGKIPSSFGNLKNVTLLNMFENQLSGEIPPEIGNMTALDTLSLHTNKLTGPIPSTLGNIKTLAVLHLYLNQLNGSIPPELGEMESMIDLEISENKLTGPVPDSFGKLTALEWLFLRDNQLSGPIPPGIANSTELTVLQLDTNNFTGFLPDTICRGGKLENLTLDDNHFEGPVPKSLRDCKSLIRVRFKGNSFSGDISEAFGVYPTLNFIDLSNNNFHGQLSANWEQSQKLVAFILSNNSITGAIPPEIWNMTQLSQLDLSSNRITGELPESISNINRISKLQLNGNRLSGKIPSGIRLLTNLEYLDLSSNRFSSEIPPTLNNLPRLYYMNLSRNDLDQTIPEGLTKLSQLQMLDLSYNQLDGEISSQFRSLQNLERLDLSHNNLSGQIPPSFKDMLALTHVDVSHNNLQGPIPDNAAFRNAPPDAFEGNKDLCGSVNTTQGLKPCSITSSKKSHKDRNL
# Experiment: ITC, MIK2 vs SCOOP12
# Assay type: binding
# Source text: ITC data were corrected for the heat of dilution by subtracting the mixing enthalpies for titrant solution injections into protein-free ITC buffer. […] The N values were fitted to 1 in the analysis.
sequence,measurement,value
PVRSSQSSQAGGR [SCOOP12],Kd,4.56 ± 0.299 µM
